From ChEMBL document CHEMBL5678816, “A Next-Generation TRK Kinase Inhibitor Overcomes Acquired Resistance to Prior TRK Kinase Inhibition in Patients with TRK Fusion-Positive Solid Tumors” (Cancer Discov, 2017)
Activity calls are given as the source filed them. The calls are words filed in the database; no cut-off is given here.

Tests used:
[1] = target: MAP kinase-activated protein kinase 5 (Homo sapiens) (UniProt Q8IW41); assay: Inhibition of MAPKAP-K5 (unknown origin) at 1 uM in presence of ATP relative to control; values are per cent of control
Chain of MAP kinase-activated protein kinase 5 (Homo sapiens) (Q8IW41 whole entry): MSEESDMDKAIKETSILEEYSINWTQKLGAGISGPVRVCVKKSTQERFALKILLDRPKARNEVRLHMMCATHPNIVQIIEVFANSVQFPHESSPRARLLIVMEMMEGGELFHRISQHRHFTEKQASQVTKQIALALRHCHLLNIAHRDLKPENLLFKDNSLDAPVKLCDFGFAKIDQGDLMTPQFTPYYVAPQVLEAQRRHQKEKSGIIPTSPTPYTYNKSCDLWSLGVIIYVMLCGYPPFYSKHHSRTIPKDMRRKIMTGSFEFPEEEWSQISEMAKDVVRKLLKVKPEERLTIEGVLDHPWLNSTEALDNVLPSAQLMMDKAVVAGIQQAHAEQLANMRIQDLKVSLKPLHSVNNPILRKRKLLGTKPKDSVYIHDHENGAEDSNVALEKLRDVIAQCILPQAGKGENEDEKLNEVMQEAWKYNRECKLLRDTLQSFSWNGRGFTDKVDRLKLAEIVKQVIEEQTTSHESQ

CAL-27 = assay: Inhibition of cell proliferation in human CAL-27 cells upto 10 umol/L incubated for 72 hrs by DAPI staining based analysis; format: functional; conditions: dose <= 10.0 µmol/L
[2] = target: Serine/threonine-protein kinase pim-3 (Homo sapiens) (UniProt Q86V86); assay: Inhibition of Pim-3 (unknown origin) at 1 uM in presence of ATP relative to control; values are per cent of control
SU-DHL10 = assay: Inhibition of cell proliferation in human SU-DHL-10 cells upto 10 umol/L incubated for 72 hrs by DAPI staining based analysis; format: functional; conditions: dose <= 10.0 µmol/L
[3] = Inhibition of N-terminal 6His-tagged TRKC G623R mutant (506 to 829 residues) (unknown origin) expressed in Escherichia coli incubated for 60 mins by [gamma-33P]-ATP based TopCount NXT liquid scintillation assay; design: species or system Homo sapiens
[4] = target: Serine/threonine-protein kinase pim-1 (Homo sapiens) (UniProt P11309); assay: Inhibition of Pim-1 (unknown origin) at 1 uM in presence of ATP relative to control; values are per cent of control
TAK1/TAB1 (Homo sapiens) = TAK1/TAB1 (Homo sapiens) (UniProt Q15750+O43318); assay: Inhibition of TAK1-TAB1 (unknown origin) at 1 uM in presence of ATP relative to control; values are per cent of control
[5] = target: Activated CDC42 kinase 1 (Homo sapiens) (UniProt Q07912); assay: Inhibition of TNK2 (unknown origin) at 1 uM in presence of ATP relative to control; values are per cent of control
[6] = target: Tyrosine-protein kinase receptor UFO (Homo sapiens) (UniProt P30530); assay: Inhibition of Axl (unknown origin) at 1 uM in presence of ATP relative to control; values are per cent of control
[7] = target: Vascular endothelial growth factor receptor 1 (Homo sapiens) (UniProt P17948); assay: Inhibition of FLt1 (unknown origin) at 1 uM in presence of ATP relative to control; values are per cent of control
[8] = target: Homeodomain-interacting protein kinase 1 (Homo sapiens) (UniProt Q86Z02); assay: Inhibition of HIPK1 (unknown origin) at 1 uM in presence of ATP relative to control; values are per cent of control
[9] = target: Receptor tyrosine-protein kinase erbB-4 (Homo sapiens) (UniProt Q15303); assay: Inhibition of ErbB4 (unknown origin) at 1 uM in presence of ATP relative to control; values are per cent of control
Chain of Receptor tyrosine-protein kinase erbB-4 (Homo sapiens) (Q15303 whole entry): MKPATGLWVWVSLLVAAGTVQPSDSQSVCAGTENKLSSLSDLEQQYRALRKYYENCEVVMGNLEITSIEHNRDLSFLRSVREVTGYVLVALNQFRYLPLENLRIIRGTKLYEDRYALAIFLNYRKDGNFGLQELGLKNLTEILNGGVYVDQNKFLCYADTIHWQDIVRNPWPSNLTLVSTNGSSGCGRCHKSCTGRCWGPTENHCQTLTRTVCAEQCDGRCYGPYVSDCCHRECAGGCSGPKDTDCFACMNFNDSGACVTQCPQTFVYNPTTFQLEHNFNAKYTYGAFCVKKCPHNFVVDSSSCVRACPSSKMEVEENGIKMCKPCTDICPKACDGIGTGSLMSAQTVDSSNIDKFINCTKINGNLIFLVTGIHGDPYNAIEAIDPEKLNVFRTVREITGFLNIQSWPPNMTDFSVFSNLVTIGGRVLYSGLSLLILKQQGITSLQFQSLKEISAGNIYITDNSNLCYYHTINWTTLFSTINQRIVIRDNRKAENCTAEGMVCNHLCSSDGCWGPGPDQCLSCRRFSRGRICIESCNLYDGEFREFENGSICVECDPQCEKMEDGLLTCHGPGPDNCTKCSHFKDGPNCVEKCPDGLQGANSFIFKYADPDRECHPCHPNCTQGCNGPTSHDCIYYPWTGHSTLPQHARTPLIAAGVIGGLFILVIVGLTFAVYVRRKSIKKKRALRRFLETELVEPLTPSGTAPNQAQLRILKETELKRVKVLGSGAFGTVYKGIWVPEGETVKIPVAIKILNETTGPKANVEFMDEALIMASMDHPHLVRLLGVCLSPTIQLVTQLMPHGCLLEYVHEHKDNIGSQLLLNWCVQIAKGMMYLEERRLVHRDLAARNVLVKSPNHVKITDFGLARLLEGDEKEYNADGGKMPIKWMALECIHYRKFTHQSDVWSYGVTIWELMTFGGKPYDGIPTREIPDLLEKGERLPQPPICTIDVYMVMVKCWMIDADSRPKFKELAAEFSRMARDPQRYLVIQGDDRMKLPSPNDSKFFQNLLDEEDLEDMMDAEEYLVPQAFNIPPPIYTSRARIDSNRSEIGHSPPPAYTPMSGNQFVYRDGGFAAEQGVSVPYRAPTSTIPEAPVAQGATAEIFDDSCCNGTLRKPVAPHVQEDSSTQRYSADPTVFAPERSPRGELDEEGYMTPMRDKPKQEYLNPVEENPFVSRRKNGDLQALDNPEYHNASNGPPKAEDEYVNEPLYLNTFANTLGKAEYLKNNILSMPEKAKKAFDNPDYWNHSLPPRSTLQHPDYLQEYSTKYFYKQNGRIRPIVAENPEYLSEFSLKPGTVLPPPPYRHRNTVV

[10] = target: Ribosomal protein S6 kinase alpha-1 (Homo sapiens) (UniProt Q15418); assay: Inhibition of Rsk1 (unknown origin) at 1 uM in presence of ATP relative to control; values are per cent of control
Chain of Ribosomal protein S6 kinase alpha-1 (Homo sapiens) (Q15418 whole entry): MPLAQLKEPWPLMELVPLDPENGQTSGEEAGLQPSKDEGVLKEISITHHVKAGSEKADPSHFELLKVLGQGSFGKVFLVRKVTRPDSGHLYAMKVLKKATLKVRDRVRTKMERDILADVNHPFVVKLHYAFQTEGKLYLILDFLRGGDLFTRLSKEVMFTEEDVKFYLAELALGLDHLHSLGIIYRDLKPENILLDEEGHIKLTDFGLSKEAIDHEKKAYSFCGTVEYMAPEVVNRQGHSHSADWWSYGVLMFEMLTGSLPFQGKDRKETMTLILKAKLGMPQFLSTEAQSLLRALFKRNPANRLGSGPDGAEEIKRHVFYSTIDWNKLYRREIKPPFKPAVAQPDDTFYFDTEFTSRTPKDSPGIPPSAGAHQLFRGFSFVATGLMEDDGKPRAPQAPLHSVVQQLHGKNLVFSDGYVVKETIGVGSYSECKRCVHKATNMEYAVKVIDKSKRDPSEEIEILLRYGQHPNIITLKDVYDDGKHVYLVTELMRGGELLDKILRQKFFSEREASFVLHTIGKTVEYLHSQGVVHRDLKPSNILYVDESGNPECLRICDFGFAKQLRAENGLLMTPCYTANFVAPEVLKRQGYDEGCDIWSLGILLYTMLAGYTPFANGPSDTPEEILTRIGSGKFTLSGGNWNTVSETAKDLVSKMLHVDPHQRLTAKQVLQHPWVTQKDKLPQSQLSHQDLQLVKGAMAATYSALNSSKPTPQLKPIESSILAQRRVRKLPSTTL

[11] = target: Calcium/calmodulin-dependent protein kinase type II subunit beta (Homo sapiens) (UniProt Q13554); assay: Inhibition of CAMK2b (unknown origin) at 1 uM in presence of ATP relative to control; values are per cent of control
Chain of Calcium/calmodulin-dependent protein kinase type II subunit beta (Homo sapiens) (Q13554 whole entry): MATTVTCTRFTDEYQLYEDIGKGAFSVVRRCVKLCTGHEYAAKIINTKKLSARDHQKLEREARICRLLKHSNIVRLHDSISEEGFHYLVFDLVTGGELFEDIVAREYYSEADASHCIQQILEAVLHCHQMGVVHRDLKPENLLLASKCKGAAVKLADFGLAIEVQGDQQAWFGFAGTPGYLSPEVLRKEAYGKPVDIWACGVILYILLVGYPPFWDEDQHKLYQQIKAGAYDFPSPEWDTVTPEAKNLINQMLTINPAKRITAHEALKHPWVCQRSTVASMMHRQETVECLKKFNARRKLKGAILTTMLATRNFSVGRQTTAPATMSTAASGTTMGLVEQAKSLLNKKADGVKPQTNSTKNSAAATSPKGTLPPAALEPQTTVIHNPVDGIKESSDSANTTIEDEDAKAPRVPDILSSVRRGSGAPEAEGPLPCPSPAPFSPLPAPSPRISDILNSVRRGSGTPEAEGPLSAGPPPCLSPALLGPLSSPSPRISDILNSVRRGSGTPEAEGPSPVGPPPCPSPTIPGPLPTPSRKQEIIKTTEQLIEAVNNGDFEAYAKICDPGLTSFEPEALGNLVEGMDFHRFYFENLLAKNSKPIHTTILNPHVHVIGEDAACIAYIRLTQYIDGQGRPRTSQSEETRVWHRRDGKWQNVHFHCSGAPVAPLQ

[12] = Clearance in rat at 1 mg/kg, iv administered as 20% hydroxypropyl-beta-cyclodextrin formulation by LC-MS analysis; format: ADME, organism-based; conditions: in vivo
[13] = target: Serine/threonine-protein kinase MARK2 (Homo sapiens) (UniProt Q7KZI7); assay: Inhibition of MARK2 (unknown origin) at 1 uM in presence of ATP relative to control; values are per cent of control
[14] = target: Fibroblast growth factor receptor 2 (Homo sapiens) (UniProt P21802); assay: Inhibition of FGFR2 (unknown origin) at 1 uM in presence of ATP relative to control; values are per cent of control
A 172 = assay: Inhibition of cell proliferation in human A-172 cells upto 10 umol/L incubated for 72 hrs by DAPI staining based analysis; format: functional; conditions: dose <= 10.0 µmol/L
[15] = target: Ribosomal protein S6 kinase alpha-2 (Homo sapiens) (UniProt Q15349); assay: Inhibition of Rsk3 (unknown origin) at 1 uM in presence of ATP relative to control; values are per cent of control
DK-MG = assay: Inhibition of cell proliferation in human DK-MG cells upto 10 umol/L incubated for 72 hrs by DAPI staining based analysis; format: functional; conditions: dose <= 10.0 µmol/L
NCI-H520 = assay: Inhibition of cell proliferation in human NCI-H520 cells upto 10 umol/L incubated for 72 hrs by DAPI staining based analysis; format: functional; conditions: dose <= 10.0 µmol/L
[16] = target: AMP-activated protein kinase (AMPK) alpha-1/beta-1/gamma-1 (Homo sapiens) (UniProt P54619+Q9Y478+Q13131); assay: Inhibition of AMPK alpha1/beta1/gamma1 (unknown origin) at 1 uM in presence of ATP relative to control; values are per cent of control
A101D = assay: Inhibition of cell proliferation in human A101D cells upto 10 umol/L incubated for 72 hrs by DAPI staining based analysis; format: functional; conditions: dose <= 10.0 µmol/L
[17] = target: RAC-alpha serine/threonine-protein kinase (Homo sapiens) (UniProt P31749); assay: Inhibition of AKT1 (unknown origin) at 1 uM in presence of ATP relative to control; values are per cent of control
Chain of RAC-alpha serine/threonine-protein kinase (Homo sapiens) (P31749 whole entry): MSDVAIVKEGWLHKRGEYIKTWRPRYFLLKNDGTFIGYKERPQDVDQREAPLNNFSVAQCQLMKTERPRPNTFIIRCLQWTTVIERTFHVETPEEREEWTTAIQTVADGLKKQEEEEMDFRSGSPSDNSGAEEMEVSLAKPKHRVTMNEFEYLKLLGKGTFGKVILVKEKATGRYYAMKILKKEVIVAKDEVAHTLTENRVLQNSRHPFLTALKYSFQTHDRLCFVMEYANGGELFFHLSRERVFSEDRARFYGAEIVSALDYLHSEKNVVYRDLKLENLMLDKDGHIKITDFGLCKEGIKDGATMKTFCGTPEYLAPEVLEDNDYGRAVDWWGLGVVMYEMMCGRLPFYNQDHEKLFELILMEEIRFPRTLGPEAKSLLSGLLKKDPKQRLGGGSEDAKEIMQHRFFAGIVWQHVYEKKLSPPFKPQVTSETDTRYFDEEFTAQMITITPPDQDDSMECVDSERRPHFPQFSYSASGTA

[18] = target: Mitogen-activated protein kinase 13 (Homo sapiens) (UniProt O15264); assay: Inhibition of […] (unknown origin) at 1 uM in presence of ATP relative to control; values are per cent of control
Chain of Mitogen-activated protein kinase 13 (Homo sapiens) (O15264 whole entry): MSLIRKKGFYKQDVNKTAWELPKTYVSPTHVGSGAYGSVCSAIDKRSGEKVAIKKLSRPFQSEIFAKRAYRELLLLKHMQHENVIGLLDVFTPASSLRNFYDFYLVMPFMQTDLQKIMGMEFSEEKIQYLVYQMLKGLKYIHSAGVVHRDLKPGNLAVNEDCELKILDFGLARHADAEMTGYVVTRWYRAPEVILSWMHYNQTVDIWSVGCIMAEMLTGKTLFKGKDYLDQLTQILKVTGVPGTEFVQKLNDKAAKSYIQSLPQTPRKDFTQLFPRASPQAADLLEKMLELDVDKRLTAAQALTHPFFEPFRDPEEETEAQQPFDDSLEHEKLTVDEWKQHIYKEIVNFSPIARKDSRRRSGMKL

[19] = target: Interleukin-1 receptor-associated kinase 4 (Homo sapiens) (UniProt Q9NWZ3); assay: Inhibition of IRAK4 (unknown origin) at 1 uM in presence of ATP relative to control; values are per cent of control
Detroit 562 = assay: Inhibition of cell proliferation in human Detroit 562 cells upto 10 umol/L incubated for 72 hrs by DAPI staining based analysis; format: functional; conditions: dose <= 10.0 µmol/L
[20] = target: Mitogen-activated protein kinase kinase kinase kinase 2 (Homo sapiens) (UniProt Q12851); assay: Inhibition of MAP4K2 (unknown origin) at 1 uM in presence of ATP relative to control; values are per cent of control
Chain of Mitogen-activated protein kinase kinase kinase kinase 2 (Homo sapiens) (Q12851 whole entry): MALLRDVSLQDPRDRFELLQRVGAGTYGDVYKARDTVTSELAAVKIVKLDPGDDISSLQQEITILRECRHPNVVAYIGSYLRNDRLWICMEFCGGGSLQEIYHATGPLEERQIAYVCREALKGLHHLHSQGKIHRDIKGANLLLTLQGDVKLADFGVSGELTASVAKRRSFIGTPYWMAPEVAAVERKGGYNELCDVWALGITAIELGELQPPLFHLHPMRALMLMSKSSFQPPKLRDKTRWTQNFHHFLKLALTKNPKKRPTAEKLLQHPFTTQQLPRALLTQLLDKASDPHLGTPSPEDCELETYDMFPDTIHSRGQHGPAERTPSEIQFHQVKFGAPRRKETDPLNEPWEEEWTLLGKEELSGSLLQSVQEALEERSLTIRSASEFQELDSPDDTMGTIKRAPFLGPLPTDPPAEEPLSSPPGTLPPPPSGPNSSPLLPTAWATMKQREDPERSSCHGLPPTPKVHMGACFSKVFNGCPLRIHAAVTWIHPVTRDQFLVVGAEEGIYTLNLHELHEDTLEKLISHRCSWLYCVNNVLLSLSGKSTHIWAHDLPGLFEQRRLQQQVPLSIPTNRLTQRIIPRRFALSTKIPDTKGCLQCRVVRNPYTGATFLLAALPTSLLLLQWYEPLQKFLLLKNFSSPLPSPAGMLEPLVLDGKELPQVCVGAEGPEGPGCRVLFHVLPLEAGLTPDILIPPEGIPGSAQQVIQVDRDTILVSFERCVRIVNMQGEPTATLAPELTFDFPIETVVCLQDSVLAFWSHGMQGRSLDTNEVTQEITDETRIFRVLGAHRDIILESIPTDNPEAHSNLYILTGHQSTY

NCI-H661 = assay: Inhibition of cell proliferation in human NCI-H661 cells upto 10 umol/L incubated for 72 hrs by DAPI staining based analysis; format: functional; conditions: dose <= 10.0 µmol/L

- residual activity [1]: 97%
- residual activity [2]: 103%
- IC50 [3]: 2.3 nM
- residual activity [4]: 122%
- residual activity (TAK1/TAB1 (Homo sapiens)): 100%
- residual activity [5]: 10%
- residual activity [6]: 90%
- residual activity [7]: 101%
- residual activity [8]: 106%
- residual activity [9]: 116%
- residual activity [10]: 109%
- residual activity [11]: 100%
- clearance [12]: 5.83 mL/min/kg
- residual activity [13]: 107%
- residual activity [14]: 96.5%
- residual activity [15]: 106%
- residual activity [16]: 96.5%
- residual activity [17]: 120%
- residual activity [18]: 110%
- residual activity [19]: 95%
- residual activity [20]: 102%
SMILES: C[C@@H]1CCc2ncc(F)cc2[C@H]2CCCN2c2ccn3ncc(c3n2)C(=O)N1 [SELITRECTINIB]
- inhibition (CAL-27): inactive
- inhibition (SU-DHL10): inactive
- inhibition (A 172): inactive
- inhibition (DK-MG): inactive
- inhibition (NCI-H520): inactive
- inhibition (A101D): inactive
- inhibition (Detroit 562): inactive
- inhibition (NCI-H661): inactive
